Laboratory results: patent US20200338084A1, “INHIBITORS OF LOW MOLECULAR WEIGHT PROTEIN TYROSINE PHOSPHATASE (LMPTP) AND USES THEREOF” (Sanford Burnham Prebys Medical Discovery Institute, priority 2018, published 2020)

Molecular target: T1, human LMPTP-A (Homo sapiens, UniProt P24666)
T1 sequence (P24666 1-158): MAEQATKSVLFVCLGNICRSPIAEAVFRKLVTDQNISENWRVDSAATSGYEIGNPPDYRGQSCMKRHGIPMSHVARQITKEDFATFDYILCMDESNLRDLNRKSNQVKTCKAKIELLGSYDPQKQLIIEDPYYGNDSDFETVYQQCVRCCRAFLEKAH
Test: Enzyme Assay of Inhibition of LMPTP-A
Type: biochemical
Conditions: phosphatase assay, OMFP or pNPP substrate, 50 mM Bis-Tris pH 6.0, 37° C.
Description: Phosphatase assays were performed in buffer containing 50 mM Bis-Tris, pH 6.0, 1 mM DTT and 0.01% Triton X-100 at 37° C. For assays conducted with 3-O-methylfluorescein phosphate (OMFP) as substrate, fluorescence was monitored continuously at λex=485 and λem=525 nm. For assays conducted with para-nitrophenylphosphate (pNPP) as substrate, the reaction was stopped by addition of 2× reaction volume of 1 M NaOH, and absorbance was measured at 405 nm. IC50 values of compounds disclosed herein were determined from plots of inhibitor concentration versus percentage of enzyme activity. For inhibitor selectivity assays, each PTP was incubated with either 0.4 mM OMFP or 5 mM pNPP in the presence of 40 μM compound or DMSO. […] For the inhibitor reversibility assay, 50 nM human LMPTP-A was pre-incubated with 10 μM of compound disclosed herein or DMSO for 5 min. The enzyme was diluted 100× in phosphatase assay buffer containing 0.4 mM OMFP and fluorescence was measured at the indicated time points.

Row | Compound | IC50 [µM]
1 | Clc1ccc(Cn2cnc(NCc3ccco3)c3ncnc2-3)cc1 [[3-(4-Chloro-benzyl)-3H-purin-6-yl]-furan-2-ylmethyl-amine] | ≥ 20
2 | Clc1ccccc1Cn1cnc(NCc2ccco2)c2ncnc1-2 [[3-(2-Chloro-benzyl)-3H-purin-6-yl]-furan-2-ylmethyl-amine] | ≥ 20
3 | COc1ccc(Cn2cnc(NCc3ccco3)c3ncnc2-3)cc1 [Furan-2-ylmethyl-[3-(4-methoxy-benzyl)-3H-purin-6-yl]-amine] | ≥ 20
4 | N#Cc1ccccc1Cn1cnc(NCc2ccco2)c2ncnc1-2 [2-((6-((Furan-2-ylmethyl)amino)-3H-purin-3-yl)methyl)benzonitrile] | ≥ 20
5 | OCCNc1ncn(Cc2c(Cl)cccc2Cl)c2ncnc1-2 [2-[3-(2,6-Dichloro-benzyl)-3H-purin-6-ylamino]-ethanol] | 1 to 20
6 | Nc1ncn(Cc2cccnc2)c2ncnc1-2 [3-Pyridin-3-ylmethyl-3H-purin-6-ylamine] | 1 to 20
7 | COc1ccc(Cn2cnc(N)c3ncnc2-3)cc1 [3-(4-Methoxy-benzyl)-3H-purin-6-ylamine] | 1 to 20
8 | Fc1ccccc1Cn1cnc(NCc2ccco2)c2ncnc1-2 [[3-(2-Fluoro-benzyl)-3H-purin-6-yl]-furan-2-ylmethyl-amine] | ≥ 20
9 | CCCCNc1ncn(Cc2c(Cl)cccc2Cl)c2ncnc1-2 [Butyl-[3-(2,6-dichloro-benzyl)-3H-purin-6-yl]-amine] | 1 to 20
10 | Cn1ncc(Br)c1Cn1cnc(N)c2ncnc1-2 [3-[(4-bromo-1-methylpyrazol-5-yl)methyl]-3-hydropurine-6-ylamine] | ≤ 1
11 | Nc1ncn(Cc2ccccc2Br)c2ncnc1-2 [3-(2-Bromo-benzyl)-3H-purin-6-ylamine] | 1 to 20
12 | Nc1ncn(Cc2ccc(Cl)s2)c2ncnc1-2 [3-((5-chlorothiophen-2-yl)methyl)-3H-purin-6-amine] | 1 to 20
13 | Fc1ccc(F)c(Cn2cnc(NCc3ccco3)c3ncnc2-3)c1F [Furan-2-ylmethyl-[3-(2,3,6-trifluoro-benzyl)-3H-purin-6-yl]-amine] | ≥ 20
14 | Nc1ncn(Cc2nnn[nH]2)c2ncnc1-2 [3-((1H-tetrazol-5-yl)methyl)-3H-purin-6-amine] | ≥ 20
15 | Cc1ccc(Cn2cnc(N)c3ncnc2-3)cc1 [3-(4-Methyl-benzyl)-3H-purin-6-ylamine] | ≥ 20
16 | Clc1cccc(Cl)c1Cn1cnc(Nc2ccc(N3CCOCC3)cc2)c2ncnc1-2 [{3-[(2,6-Dichlorophenyl)methyl](3-hydropurin-6-yl)}(4-morpholin-4-ylphenyl)amine] | 1 to 20
17 | Clc1ccc(Cn2cnc(NCc3ccco3)c3ncnc2-3)c(Cl)c1 [[3-(2,4-Dichloro-benzyl)-3H-purin-6-yl]-furan-2-ylmethyl-amine] | ≥ 20
18 | Nc1ncn(Cc2cccc(Cl)c2Cl)c2ncnc1-2 [3-(2,3-Dichloro-benzyl)-3H-purin-6-ylamine] | 1 to 20
19 | Nc1ncn(Cc2ccc(Br)cc2)c2ncnc1-2 [3-(4-Bromo-benzyl)-3H-purin-6-ylamine] | 1 to 20
20 | N#Cc1ccc(Cn2cnc(NCc3ccco3)c3ncnc2-3)cc1 [4-{6-[(Furan-2-ylmethyl)-amino]-purin-3-ylmethyl}-benzonitrile] | ≥ 20
21 | Cn1ccnc1Cn1cnc(N)c2ncnc1-2 [3-((1-methyl-1H-imidazol-2-yl)methyl)-3H-purin-6-amine] | ≥ 20
22 | Nc1ncn(Cc2cccc(F)c2)c2ncnc1-2 [3-(3-Fluoro-benzyl)-3H-purin-6-ylamine] | 1 to 20
23 | CCCCCNc1ncn(Cc2c(Cl)cccc2Cl)c2ncnc1-2 [[3-(2,6-Dichloro-benzyl)-3H-purin-6-yl]-pentyl-amine] | 1 to 20
24 | Nc1ncn(Cc2ccc(C(F)(F)F)cc2)c2ncnc1-2 [3-(4-(trifluoromethyl)benzyl)-3H-purin-6-amine] | 1 to 20
25 | COCCNc1ncn(Cc2c(Cl)cccc2Cl)c2ncnc1-2 [[3-(2,6-Dichloro-benzyl)-3H-purin-6-yl]-(2-methoxy-ethyl)-amine] | 1 to 20

The next lines start with the values.

Row | IC50 [µM] | Compound
26 | ≤ 1 | COc1cccc(-c2nc3c(N)ncn(Cc4c(Cl)cccc4Cl)c-3n2)c1 [3-[(2,6-Dichlorophenyl)methyl]-8-(3-methoxyphenyl)-3-hydropurine-6-ylamine]
27 | 1 to 20 | FC(F)(F)Oc1cccc(Nc2ncn(Cc3c(Cl)cccc3Cl)c3ncnc2-3)c1 [3-(2,6-Dichlorobenzyl)-N-(3-(trifluoromethoxy)phenyl)-3H-purin-6-amine]
28 | 1 to 20 | FC(F)Oc1ccc(Nc2ncn(Cc3c(Cl)cccc3Cl)c3ncnc2-3)cc1 [3-(2,6-Dichlorobenzyl)-N-(4-(difluoromethoxy)phenyl)-3H-purin-6-amine]
29 | 1 to 20 | CCCc1ccc(Nc2ncn(Cc3c(Cl)cccc3Cl)c3ncnc2-3)cc1 [{3-[(2,6-Dichlorophenyl)methyl](3-hydropurin-6-yl)}(4-propylphenyl)amine]
30 | ≤ 1 | Nc1ncn(Cc2c(Cl)cccc2Cl)c2nc(-c3ccoc3)nc1-2 [3-[(2,6-Dichlorophenyl)methyl]-8-(3-furyl)-3-hydropurine-6-ylamine]
31 | 1 to 20 | COc1cccc(Nc2ncn(Cc3c(Cl)cccc3Cl)c3ncnc2-3)c1 [{3-[(2,6-Dichlorophenyl)methyl](3-hydropurin-6-yl)}(3-methoxyphenyl)amine]
32 | ≤ 1 | Nc1ncn(Cc2c(Cl)cncc2Cl)c2nc(-c3ccccc3)nc1-2 [3-[(3,5-Dichloro(4-pyridyl))methyl]-8-phenyl-3-hydropurine-6-ylamine]
33 | ≤ 1 | Cc1ccc(-c2nc3c(N)ncn(Cc4c(Cl)cccc4Cl)c-3n2)cc1 [3-[(2,6-Dichlorophenyl)methyl]-8-(4-methylphenyl)-3-hydropurine-6-ylamine]
34 | 1 to 20 | Clc1cccc(Cl)c1Cn1cnc(Nc2ccc(Br)cc2)c2ncnc1-2 [{3-[(2,6-Dichlorophenyl)methyl](3-hydropurin-6-yl)}(4-bromophenyl)amine]
35 | ≤ 1 | Cc1noc(C)c1-c1nc2c(N)ncn(Cc3c(Cl)cccc3Cl)c-2n1 [3-(2,6-dichlorobenzyl)-8-(3,5-dimethylisoxazol-4-yl)-3H-purin-6-amine]
36 | ≥ 20 | Cc1ccc(S(=O)(=O)Nc2ncn(Cc3c(Cl)cccc3Cl)c3ncnc2-3)cc1 [{3-[(2,6-dichlorophenyl)methyl](3-hydropurin-6-yl)}[(4-methylphenyl)sulfonyl]amine]
37 | ≤ 1 | Nc1ncn(Cc2c(Cl)cccc2Cl)c2nc(-c3c(F)cccc3F)nc1-2 [3-[(2,6-dichlorophenyl)methyl]-8-(2,6-difluorophenyl)-3-hydropurine-6-ylamine]
38 | ≤ 1 | Nc1ncn(Cc2c(Cl)cccc2Cl)c2nc(Cc3ccc(C(F)(F)F)cc3)nc1-2 [3-[(2,6-dichlorophenyl)methyl]-8-{[4-(trifluoromethyl)phenyl]methyl}-3-hydropurine-6-ylamine]
39 | 1 to 20 | Clc1ccc(CNc2ncn(Cc3c(Cl)cccc3Cl)c3ncnc2-3)cc1 [N-(4-chlorobenzyl)-3-(2,6-dichlorobenzyl)-3h-purin-6-amine]
40 | ≥ 20 | CC(C)(C)c1ccccc1Nc1ncn(Cc2c(Cl)cccc2Cl)c2ncnc1-2 [{3-[(2,6-Dichlorophenyl)methyl](3-hydropurin-6-yl)}[2-(tert-butyl)phenyl]amine]
41 | ≤ 1 | Cc1cccc(-c2nc3c(N)ncn(Cc4c(Cl)cccc4Cl)c-3n2)c1 [3-[(2,6-Dichlorophenyl)methyl]-8-(3-methylphenyl)-3-hydropurine-6-ylamine]
42 | 1 to 20 | COc1ccc(CNc2ncn(Cc3c(Cl)cccc3Cl)c3ncnc2-3)cc1 [{3-[(2,6-dichlorophenyl)methyl](3-hydropurin-6-yl)}[(4-methoxyphenyl)methyl]amine]
43 | ≤ 1 | Nc1ncn(Cc2c(Cl)cccc2Br)c2ncnc1-2 [3-(2-bromo-6-chlorobenzyl)-3H-purin-6-amine]
44 | 1 to 20 | O=[N+]([O-])c1ccc(Nc2ncn(Cc3c(Cl)cccc3Cl)c3ncnc2-3)cc1 [{3-[(2,6-Dichlorophenyl)methyl](3-hydropurin-6-yl)}(4-nitrophenyl)amine]
45 | ≤ 1 | Nc1ncn(Cc2c(F)cccc2Cl)c2ncnc1-2 [3-(2-Chloro-6-fluoro-benzyl)-3H-purin-6-ylamine]
46 | ≥ 20 | N#Cc1cccc(Nc2ncn(Cc3c(Cl)cccc3Cl)c3ncnc2-3)c1 [3-({3-[(2,6-Dichlorophenyl)methyl]-3-hydropurin-6-yl}amino)benzenecarbonitrile]
47 | ≤ 1 | Nc1ncn(Cc2c(Cl)cccc2Cl)c2nc(C3C4CC5CC(C4)CC3C5)nc1-2 (stereo not drawn) [8-Adamantan-2-yl-3-[(2,6-dichlorophenyl)methyl]-3-hydropurine-6-ylamine]
48 | ≤ 1 | Nc1ncn(Cc2c(Cl)cccc2Cl)c2ncnc1-2 [3-<2,6-Dichloro-benzyl)-3H-purin-6-ylamine]
49 | ≥ 20 | O=C(Nc1ncn(Cc2c(Cl)cccc2Cl)c2ncnc1-2)c1ccccc1 [N-[3-(2,6-Dichloro-benzyl)-3H-purin-6-yl]-benzamide]
50 | ≤ 1 | Nc1ncn(Cc2c(Cl)cccc2Cl)c2nc(-c3ccccc3)nc1-2 [3-[(2,6-Dichlorophenyl)methyl]-8-phenyl-3-hydropurine-6-ylamine]
51 | 1 to 20 | Nc1ncn(Cc2c(Cl)cccc2Cl)c2nc(Br)nc1-2 [3-[(2,6-Dichlorophenyl)methyl]-8-bromo-3-hydropurine-6-ylamine]
